IC50 data for 37 compounds are collected here from patent US20090131468A1, “Bis-(Sulfonylamino) Derivatives in Therapy 065” (AstraZeneca AB, priority 2007, published 2009).

The target in this assay is T1, human mPGES-1 (Homo sapiens, UniProt O14684).
T1 sequence (O14684 1-152): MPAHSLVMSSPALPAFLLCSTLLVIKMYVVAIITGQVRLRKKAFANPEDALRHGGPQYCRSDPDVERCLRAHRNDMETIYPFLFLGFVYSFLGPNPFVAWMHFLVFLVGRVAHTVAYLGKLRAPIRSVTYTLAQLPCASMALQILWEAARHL
Briefly: Microsomal prostaglandin E synthase biochemical assay. Particulars: microsome preparation containing human mPGES-1; PGH2 10.8 μM, GSH 2.5 mM, pH 6.8; PGE2 quantified by HTRF; average of at least n=2. The procedure, abridged: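 Human mPGES-1 microsomes (from IL-1β-stimulated A549 cells or Sf9 cells expressing human mPGES-1) were pre-incubated 15 min with compound in potassium phosphate buffer pH 6.8 with GSH. PGH2 was then added, and the reaction was stopped after one minute with acidic ferric chloride/citrate. PGE2 was read by HTRF, and IC50 was taken from control-normalised activity.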
The term IC50 denotes the midpoint of a concentration-inhibition curve. Lower therefore signals inhibition by little substance. On to `NS(=O)(=O)c1ccccc1S(=O)(=O)NC(=O)c1ccc(-c2cccc(C(F)(F)F)c2)o1` [Example 37, N-(2-Sulfamoylphenyl)sulfonyl-5-[3-(trifluoromethyl)phenyl]furan-2-carboxamide], for which the IC50 is 1100 nM. Under `NS(=O)(=O)c1ccccc1S(=O)(=O)NC(=O)c1ccc(-c2cc3ccccc3o2)cc1O` [Example 49, 4-(Benzofuran-2-yl)-2-hydroxy-N-(2-sulfamoylphenylsulfonyl)benzamide] stands 8.1 nM; under `NS(=O)(=O)c1ccccc1S(=O)(=O)NC(=O)c1ccc(Cl)cc1Cc1ccccc1` [Example 24, 2-Benzyl-4-chloro-N-(2-sulfamoylphenyl)sulfonyl-benzamide], 5400 nM; under `CC(C)Oc1cc(C(=O)NS(=O)(=O)c2ccccc2S(N)(=O)=O)ccc1C#CC1CCCCC1` [Example 131, 4-(Cyclohexylethynyl)-3-isopropoxy-N-(2-sulfamoylphenylsulfonyl)benzamide], 14 nM. Under `C[C@]1(C(=O)NS(=O)(=O)c2ccccc2S(N)(=O)=O)CC[C@@H](c2cc3ccccc3o2)CC1` [Example 109, (1s,4s)-4-(Benzofuran-2-yl)-1-methyl-N-(2-sulfamoylphenylsulfonyl) cyclohexane-carboxamide] stands 270 nM; under `CC(C)(C)C#Cc1ccc(C(=O)NS(=O)(=O)c2ccccc2S(N)(=O)=O)c(C(F)(F)F)c1` [Example 151, 4-(3,3-Dimethylbut-1-ynyl)-N-(2-sulfamoylphenylsulfonyl)-2-(trifluoromethyl)-benzamide], 380 nM.

Compound `NS(=O)(=O)c1ccccc1S(=O)(=O)NC(=O)c1ccc2oc(C3CCCC3)cc2c1` [Example 78, 2-Cyclopentyl-N-(2-sulfamoylphenylsulfonyl)benzofuran-5-carboxamide] returned an IC50 of 5700 nM. The same measure for `NS(=O)(=O)c1ccccc1S(=O)(=O)NC(=O)c1ccc(C#CC2CCCCC2)c(CO)c1` [Example 101, 4-(Cyclohexylethynyl)-3-(hydroxymethyl)-N-(2-sulfamoylphenylsulfonyl)benzamide]: 48 nM; for `NS(=O)(=O)c1ccccc1S(=O)(=O)NC(=O)c1cnc(C#CC2CCCC2)c(Cl)c1` [Example 148, 5-Chloro-6-(cyclopentylethynyl)-N-(2-sulfamoylphenylsulfonyl)nicotinamide]: 22 nM.

Regarding `Cc1nc(-c2ccccc2)sc1C(=O)NS(=O)(=O)c1ccccc1S(N)(=O)=O` [Example 29, 4-Methyl-2-phenyl-N-(2-sulfamoylphenyl)sulfonyl-1,3-thiazole-5-carboxamide], inhibition was half-maximal at 290 nM (IC50). `NS(=O)(=O)c1ccccc1S(=O)(=O)NC(=O)c1ccc(Br)c(F)c1` [Example 13, 4-Bromo-3-fluoro-N-(2-sulfamoylphenyl)sulfonyl-benzamide]: the midpoint of inhibition, the IC50, lay at 290 nM. In turn, `COc1c(C#CC(C)(C)C)ccc(C(=O)NS(=O)(=O)c2ccccc2S(N)(=O)=O)c1C` [Example 68, 4-(3,3-Dimethylbut-1-ynyl)-3-methoxy-2-methyl-N-(2-sulfamoylphenylsulfonyl)-benzamide] had an IC50 of 2000 nM.

Compound `NS(=O)(=O)c1ccccc1S(=O)(=O)NC(=O)c1ccc(-c2cc3ccccc3o2)cc1C(F)(F)F` [Example 150, 4-(Benzofuran-2-yl)-N-(2-sulfamoylphenylsulfonyl)-2-(trifluoromethyl)benzamide] yielded an IC50 of 360 nM. Under `CC(C)Oc1cc(C(=O)NS(=O)(=O)c2ccccc2S(N)(=O)=O)cnc1C#CC1CCCC1` [Example 143, 6-(Cyclopentylethynyl)-5-isopropoxy-N-(2-sulfamoylphenylsulfonyl)nicotinamide] stands 14 nM.

Regarding `NS(=O)(=O)c1ccccc1S(=O)(=O)NC(=O)c1ccc(-c2cc3ccccc3o2)c2ccccc12` [Example 62, 4-(Benzofuran-2-yl)-N-(2-sulfamoylphenylsulfonyl)-1-naphthamide], half-maximal inhibition (IC50) was put at 20 nM. The same measure for `COc1ccccc1-c1cc2cc(C(=O)NS(=O)(=O)c3ccccc3S(N)(=O)=O)ccc2o1` [Example 120, 2-(2-Methoxyphenyl)-N-(2-sulfamoylphenylsulfonyl)benzofuran-5-carboxamide]: 28 nM; for `NS(=O)(=O)c1ccccc1S(=O)(=O)NC(=O)c1ccc(C#Cc2cccnc2)nc1` [Example 95, 6-(Pyridin-3-ylethynyl)-N-(2-sulfamoylphenylsulfonyl)nicotinamide]: 2000 nM; for `NS(=O)(=O)c1ccccc1S(=O)(=O)NC(=O)c1ccc(-c2cc3ccccc3o2)cn1` [Example 1, 5-Benzofuran-2-yl-N-(2-sulfamoylphenyl)sulfonyl-pyridine-2-carboxamide]: 240 nM. Compound `COC(C)(C)c1cc2cc(C(=O)NS(=O)(=O)c3ccccc3S(N)(=O)=O)ccc2o1` [Example 125, 2-(2-Methoxypropan-2-yl)-N-(2-sulfamoylphenylsulfonyl)benzofuran-5-carboxamide] registered an IC50 of 12000 nM. In turn, `CC(C)(C)C#Cc1ccc(C(=O)NS(=O)(=O)c2ccccc2S(N)(=O)=O)cc1F` [Example 73, 4-(3,3-Dimethylbut-1-ynyl)-3-fluoro-N-(2-sulfamoylphenylsulfonyl)benzamide] had an IC50 of 60 nM. In turn, `CC(C)(C)c1cc2cc(C(=O)NS(=O)(=O)c3ccccc3S(N)(=O)=O)ccc2o1` [Example 76, 2-tert-Butyl-N-(2-sulfamoylphenylsulfonyl)benzofuran-5-carboxamide] yielded an IC50 of 110 nM. `CCOC(=O)c1ccc(-c2ccc(C(=O)NS(=O)(=O)c3ccccc3S(N)(=O)=O)o2)cc1` [Example 41, Ethyl 4-[5-[(2-Sulfamoylphenyl)sulfonylcarbamoyl]-2-furyl]benzoate] yielded an IC50 of 5400 nM. Under `NS(=O)(=O)c1cc(CO)ccc1S(=O)(=O)NC(=O)c1ccc(-c2cc3ccccc3o2)cc1` [Example 161, 4-(Benzofuran-2-yl)-N-(4-(hydroxymethyl)-2-sulfamoylphenylsulfonyl)benzamide] stands 320 nM; under `CC(C)Oc1cc(C(=O)NS(=O)(=O)c2ccccc2S(N)(=O)=O)ccc1C#CC1CC1` [Example 132, 4-(Cyclopropylethynyl)-3-isopropoxy-N-(2-sulfamoylphenylsulfonyl)benzamide], 110 nM. Under `COc1cc(C(=O)NS(=O)(=O)c2ccccc2S(N)(=O)=O)ccc1C#CC(C)(C)OC` [Example 114, 3-Methoxy-4-(3-methoxy-3-methylbut-1-ynyl)-N-(2-sulfamoylphenylsulfonyl)-benzamide] stands 1600 nM; under `CC(C)Oc1cc(C(=O)NS(=O)(=O)c2ccccc2S(N)(=O)=O)ccc1C#CC1(O)CCCCCC1` [Example 133, 4-((1-Hydroxycycloheptyl)ethynyl)-3-isopropoxy-N-(2-sulfamoylphenylsulfonyl)-benzamide], 560 nM.

Compound `COc1cc(C(=O)NS(=O)(=O)c2ccccc2S(N)(=O)=O)ccc1C#CC(C)(C)C` [Example 110, 4-(3,3-Dimethylbut-1-ynyl)-3-methoxy-N-(2-sulfamoylphenylsulfonyl)benzamide] showed an IC50 of 270 nM. Under `COc1cc(-c2cc3ccccc3o2)ccc1C(=O)NS(=O)(=O)c1ccccc1S(N)(=O)=O` [Example 48, 4-(Benzofuran-2-yl)-2-methoxy-N-(2-sulfamoylphenylsulfonyl)benzamide] stands 150 nM; under `CC(C)Oc1cc(C(=O)NS(=O)(=O)c2ccccc2S(N)(=O)=O)ccc1C#CC1CCCC1` [Example 130, 4-(Cyclopentylethynyl)-3-isopropoxy-N-(2-sulfamoylphenylsulfonyl)benzamide], 20 nM. Compound `CC(C)(O)C#Cc1ccc(C(=O)NS(=O)(=O)c2ccccc2S(N)(=O)=O)cc1` [Example 44, 4-(3-Hydroxy-3-methylbut-1-ynyl)-N-(2-sulfamoylphenylsulfonyl)benzamide] came in with an IC50 of 240 nM. The same measure for `NS(=O)(=O)c1ccccc1S(=O)(=O)NC(=O)c1ccc2oc(-c3cccnc3)cc2c1` [Example 123, 2-(Pyridin-3-yl)-N-(2-sulfamoylphenylsulfonyl)benzofuran-5-carboxamide]: 2000 nM; for `COc1c(-c2cc3ccccc3o2)ccc(C(=O)NS(=O)(=O)c2ccccc2S(N)(=O)=O)c1C` [Example 69, 4-(Benzofuran-2-yl)-3-methoxy-2-methyl-N-(2-sulfamoylphenylsulfonyl)benzamide]: 79 nM.

In the case of `NS(=O)(=O)c1ccccc1S(=O)(=O)NC(=O)[C@H]1CC[C@H](c2cc3ccccc3o2)CC1` [Example 106, (1r,4r)-4-(Benzofuran-2-yl)-N-(2-sulfamoylphenylsulfonyl)cyclohexanecarboxamide], half-maximal inhibition (IC50) required 140 nM. `CC(C)(C)C#Cc1ccc(C(=O)NS(=O)(=O)c2ccccc2S(N)(=O)=O)c2ccccc12` [Example 61, 4-(3,3-Dimethylbut-1-ynyl)-N-(2-sulfamoylphenylsulfonyl)-1-naphthamide] yielded a concentration for half-maximal inhibition (IC50) of 99 nM. `NS(=O)(=O)c1ccccc1S(=O)(=O)NC(=O)c1ccc(-c2cccc(Cl)c2Cl)cn1` [Example 2, 5-(2,3-Dichlorophenyl)-N-(2-sulfamoylphenyl)sulfonyl-pyridine-2-carboxamide] showed an IC50 of 2000 nM. Under `Cc1cc(C#CC2CCCC2)ccc1C(=O)NS(=O)(=O)c1ccccc1S(N)(=O)=O` [Example 67, 4-(Cyclopentylethynyl)-2-methyl-N-(2-sulfamoylphenylsulfonyl)benzamide] stands 85 nM. Under `COCCOCCOc1cc(C(=O)NS(=O)(=O)c2ccccc2S(N)(=O)=O)ccc1-c1cc2ccccc2o1` [Example 119, 4-(Benzofuran-2-yl)-3-(2-(2-methoxyethoxy)ethoxy)-N-(2-sulfamoylphenylsulfonyl)-benzamide] stands 17 nM.
